# Data published in patent US9284306B2, “(R)-Nifuratel, its use for the treatment of infections and synthesis of (R) and (S)-Nifuratel” (POLICHEM SA, priority 2012, dated 2016).
# Read-outs that look alike come from different tables or passages of the source.
# Columns and labels:
# Atopobium vaginae = assay: MIC, agar dilution; type: cell-based; details: Fannyhessea vaginae
# Experimental: (§1) Micrococcus pyogenes (ATCC 11631), Bacillus subtilis (ATCC 11774), Lactobacillus iners (ATCC 55195), Escherichia coli (ATCC 11775), Proteus mirabilis (ATCC 14153), Klebsiella pneumoniae (ATCC 10031), Shigella sonnei (ATCC 11060), Neisseria gonorrhoeae (ATCC 19424), Salmonella typhimurium (ATCC 14028) Salmonella paratyphi B (ATCC 10719), Helicobacter pylori (ATCC 43504) and several strains of Atopobium vaginae and Gardnerella vaginalis.
# (§2) Strains were prepared from freeze-dried pellets. An isolation of the suspensions (to test the strains purity) and a strains massive growth were made by streaking microbial suspensions on agar media. The bacterial colonies on agar plates were collected with 3-5 mL of specific liquid medium+15% glycerol and then the aliquots were frozen at −80° C.
# (§3) Compounds Minimal Inhibitory Concentration (MIC) was determined through broth micro-dilution susceptibility testing with a method developed following the National Committee for Clinical Laboratory Standards (CLSI) M07-A8 and M11-A7 references. Assays were carried out in specific media (Table 3). The tests were performed either following the broth microdilution assay or the agar dilution assay. Compounds stock solutions were made at 12.8 mg/mL in DMSO 100%. A series of twofold dilutions were then prepared using the strain specific broth. Final concentrations were from 0.125 μg/mL to 64 μg/mL at 1% DMSO. MIC is defined as the lowest concentration of antibacterial agent which prevent any visible growth.
# Gardnerella vaginalis = assay: MIC, agar dilution; type: cell-based
# Experimental: as §1, §2, §3
# [1] = system: Micrococcus pyogenes ATCC 11631; assay: MIC, broth microdilution; type: cell-based; details: Staphylococcus aureus, ATCC11631; broth microdilution; Micrococcus pyogenes ATCC 11631; read-out: MIC
# Experimental: as §1, §2, §3
# Bacillus subtilis = assay: MIC, broth microdilution; type: cell-based; details: broth microdilution, read-out: MIC
# Experimental: as §1, §2, §3
# [2] = system: Klebsiella pneumonia ATCC 10031; assay: MIC, broth microdilution; type: cell-based; details: Klebsiella pneumoniae, ATCC10031; broth microdilution; Klebsiella pneumonia ATCC 10031; read-out: MIC
# Experimental: as §1, §2, §3
# [3] = system: Salmonella paratyphi B ATCC 10719; assay: MIC, broth microdilution; type: cell-based; details: Salmonella enterica
# Experimental: as §1, §2, §3
# [4] = system: Neisseria gonorrhoeae ATCC 19424; assay: MIC, broth microdilution; type: cell-based; details: ATCC19424; broth microdilution; Neisseria gonorrhoeae ATCC 19424; read-out: MIC
# Experimental: as §1, §2, §3
# [5] = system: Shigella sonnei ATCC 11060; assay: MIC, broth microdilution; type: cell-based; details: ATCC11060
# Experimental: as §1, §2, §3
# [6] = system: Proteus mirabilis ATCC 14153; assay: MIC, broth microdilution; type: cell-based; details: ATCC14153; broth microdilution; Proteus mirabilis ATCC 14153; read-out: MIC
# Experimental: as §1, §2, §3
# [7] = system: Salmonella typhimurium ATCC 14028; assay: MIC, broth microdilution; type: cell-based; details: Salmonella enterica; broth microdilution; Salmonella typhimurium ATCC 14028; read-out: MIC
# Experimental: as §1, §2, §3
# [8] = system: Lactobacillus iners ATCC 55195; assay: MIC, broth microdilution; type: cell-based; details: ATCC55195; broth microdilution; Lactobacillus iners ATCC 55195; read-out: MIC
# Experimental: as §1, §2, §3
# [9] = system: Helicobacter pylori ATCC 43504; assay: MIC, broth microdilution; type: cell-based; details: ATCC43504; broth microdilution; Helicobacter pylori ATCC 43504; read-out: MIC
# Experimental: as §1, §2, §3
# [10] = system: Escherichia coli ATCC 11775; assay: MIC, broth microdilution; type: cell-based; details: ATCC11775; broth microdilution; Escherichia coli ATCC 11775; read-out: MIC
# Experimental: as §1, §2, §3
# in vivo [11] = details: male, rat, iv, 2 mg/kg
# [12] = system: Staphylococcus aureus (MRSA); assay: MIC, broth microdilution; type: cell-based
# Experimental: as §2, §3
# in vivo [13] = details: male, rat, po, 15 mg/kg
structure (smiles),measurement,setting,value
"CSC[C@@H]1CN(/N=C/c2ccc([N+](=O)[O-])o2)C(=O)O1 [S-Nifuratel, (S)-Nifuratel]",MIC,"Atopobium vaginae; CCUG38953, agar dilution, Atopobium vaginae CCUG 38953, read-out: MIC",0.25 µg/mL
same,MIC,"Atopobium vaginae; CCUG39382, agar dilution, Atopobium vaginae CCUG 39382, read-out: MIC",0.25 µg/mL
same,MIC,"Atopobium vaginae; CCUG42099, agar dilution, Atopobium vaginae CCUG 42099, read-out: MIC",0.5 µg/mL
same,MIC,"Atopobium vaginae; CCUG43049, agar dilution, Atopobium vaginae CCUG 43049, read-out: MIC",0.5 µg/mL
same,MIC,Atopobium vaginae; CCUG44061,0.125 µg/mL
same,MIC,"Atopobium vaginae; CCUG44156, agar dilution, Atopobium vaginae CCUG 44156, read-out: MIC",0.25 µg/mL
same,MIC,"Atopobium vaginae; CCUG48515, agar dilution, Atopobium vaginae CCUG 48515, read-out: MIC",1 µg/mL
same,MIC,"Atopobium vaginae; CCUG55226, agar dilution, Atopobium vaginae CCUG 55226, read-out: MIC",1 µg/mL
same,MIC,"Atopobium vaginae; CCUG55227, agar dilution, Atopobium vaginae CCUG 55227, read-out: MIC",0.5 µg/mL
same,MIC,"Gardnerella vaginalis; ATCC14018, agar dilution, Gardnerella vaginalis ATCC 14018, read-out: MIC",2 µg/mL
same,MIC,"Gardnerella vaginalis; agar dilution, Gardnerella vaginalis C2, read-out: MIC",8 µg/mL
same,MIC,"Gardnerella vaginalis; agar dilution, Gardnerella vaginalis D2, read-out: MIC",2 µg/mL
same,MIC,"Gardnerella vaginalis; agar dilution, Gardnerella vaginalis E2, read-out: MIC",2 µg/mL
same,MIC,"Gardnerella vaginalis; agar dilution, Gardnerella vaginalis G2, read-out: MIC",1 µg/mL
same,MIC,"Gardnerella vaginalis; agar dilution, Gardnerella vaginalis H2, read-out: MIC",2 µg/mL
same,MIC,"Gardnerella vaginalis; agar dilution, Gardnerella vaginalis J2, read-out: MIC",4 µg/mL
same,MIC,"Gardnerella vaginalis; agar dilution, Gardnerella vaginalis K2, read-out: MIC",4 µg/mL
same,MIC,[1],1 µg/mL
same,MIC,Bacillus subtilis,1 µg/mL
same,MIC,[2],4 µg/mL
same,MIC,[3],4 µg/mL
same,MIC,[4],0.5 µg/mL
same,MIC,[5],4 µg/mL
same,MIC,[6],8 µg/mL
same,MIC,[7],8 µg/mL
same,MIC,[8],32 µg/mL
same,MIC,[9],0.25 µg/mL
same,MIC,[10],2 µg/mL
same,AUC(0-inf),in vivo [11],167 ng·h/mL
same,AUC(0-t),in vivo [11],166 ng·h/mL
same,Clast,in vivo [11],5 ng/mL
same,Cmax,in vivo [11],1150 ng/mL
same,MRT,in vivo [11],4 min
same,Tlast,in vivo [11],53 min
same,Tmax,in vivo [11],2 min
same,VSR,in vivo [11],0.9 L/kg
same,clearance,in vivo [11],203 mL/min/kg
same,half-life,in vivo [11],8 min
same,MIC,[12],4 µg/mL
same,AUC(0-t),in vivo [13],32.6 ng·h/mL
same,Clast,in vivo [13],3 ng/mL
same,Cmax,in vivo [13],6 ng/mL
same,Tlast,in vivo [13],480 min
same,Tmax,in vivo [13],5 min
